Experimental data: article PMC12133982, “Predominant T-cell epitopes of SARS-CoV-2 restricted by multiple prevalent HLA-B and HLA-C allotypes in Northeast Asia” (Frontiers in Immunology, 2025)
Where two headings read alike, the source gives them in different places. Peptide text beside a SMILES is read from it.

What was measured:
HLA-C0302 = HLA-C0302 (Homo sapiens, UniProt P10321, A176E/A330V/A97T/C25G/C350S/D114A/D33Y/E197K/L127V/L171W/L218V/M285V/M309V/M331V/P208H/Q277E/Q291P/R243W/R45H/S123Y/S297R/S48A/T118I/T187L/T329A/T363A/V319A); assay: Competitive peptide binding assay, CIR-C0302; details: HMy2.CIR-C0302 cells, reference Cy5-[…], class from inhibition at 5 and 15 μM, flow cytometry MFI; read-out: Binding affinity with HLA-C0302
Procedure: (§1) Then, competitive peptide binding assays were performed.

HLA-C0401 = HLA-C0401 (Homo sapiens, UniProt P10321, A176E/A330V/A35S/A73E/C25G/C350S/D138N/D33S/E299K/L171W/L180R/L218V/M285V/M309V/M331V/N104K/P208H/Q277E/Q291P/R243W/R38W/S101N/S123F/S140F/S297R/S48A/T329A/T363A/V319A/V327M); assay: Competitive peptide binding assay, CIR-C0401; details: HMy2.CIR-C0401 cells, reference Cy5-[…], class from inhibition at 5 and 15 μM, flow cytometry MFI; read-out: Binding affinity with HLA-C0401
Procedure: as §1

HLA-C0702 = HLA-C0702 (Homo sapiens, UniProt P10321); assay: Competitive peptide binding assay, CIR-C0702
HLA-C0602 = HLA-C0602 (Homo sapiens, UniProt P10321, A176E/A330V/C350S/L171W/L180W/L218V/M285V/M309V/M331V/N104K/P208H/Q277E/Q291P/R121W/S101N/S123Y/S297R/T329A/T363A/V319A/V328M); assay: Competitive peptide binding assay, CIR-C0602
HLA-C0102 = HLA-C0102 (Homo sapiens, UniProt P10321, A176E/A330V/A35S/A97T/C350S/D114A/D33F/L171W/L180R/L218V/M285V/M309V/M331V/P208H/Q277E/Q291P/R121W/R243W/R30K/S123C/S140Y/S297R/T329A/T363A/V272M/V319A); assay: Competitive peptide binding assay, CIR-C0102; details: for inhibition at 5 µM / inhibition at 15 µM: read-out: Inhibition % of Cy5-reference peptide binding
Procedure: as §1

HLA-C0801 = HLA-C0801 (Homo sapiens, UniProt P10321, A176T/A330V/A97T/C350S/D114A/D138N/D33Y/E201K/E299G/L171W/L218V/M285V/M309V/M331V/P208H/Q277E/Q291P/R59Q/S123Y/S140F/S297R/S48A/T329A/T363A/V319A/V328M); assay: Competitive peptide binding assay, CIR-C0801; details: HMy2.CIR-C0801 cells, reference Cy5-[…], class from inhibition at 5 and 15 μM, flow cytometry MFI; read-out: Binding affinity with HLA-C0801
Procedure: as §1

HLA-C0304 = HLA-C0304 (Homo sapiens, UniProt P10321, A176E/A330V/A97T/C25G/C350S/D114A/D33Y/E197K/L119I/L127V/L171W/L218V/M285V/M309V/M331V/P208H/Q277E/Q291P/R243W/R45H/S123Y/S140Y/S297R/S48A/T118I/T187L/T329A/T363A/V319A); assay: Competitive peptide binding assay, CIR-C0304; details: HMy2.CIR-C0304 cells, reference Cy5-[…], class from inhibition at 5 and 15 μM, flow cytometry MFI; read-out: Binding affinity with HLA-C0304
Procedure: as §1

[1] = HMy2.CIR-C0102 cells, reference Cy5-[…], class from inhibition at 5 and 15 μM, flow cytometry MFI, read-out: Binding affinity with HLA-C0102

| Structure (SMILES) | IC50 (HLA-C0302) | IC50 (HLA-C0401) | IC50 (HLA-C0702) | IC50 (HLA-C0602) | IC50 (HLA-C0102; [1]) | inhibition at 5 µM (HLA-C0102) | inhibition at 15 µM (HLA-C0102) | IC50 (HLA-C0801) | IC50 (HLA-C0304) | IC50 (HLA-C0102) |
| --- | --- | --- | --- | --- | --- | --- | --- | --- | --- | --- |
| C[C@H](NC(=O)[C@H](CO)NC(=O)[C@H](C)NC(=O)[C@H](CO)NC(=O)[C@@H]1CCCN1C(=O)[C@H](C)NC(=O)[C@@H](N)Cc1ccccc1)C(=O)N[C@@H](Cc1ccccc1)C(=O)N[C@@H](Cc1ccccc1)C(=O)O [Epitope M16] (H-FAPSASAFF-OH; N-terminus and C-terminus assumed) | < 5 µM | 5 to 15 µM | > 15 µM | > 15 µM | 5 to 15 µM | 37% | 81.4% | – | – | – |
| CC(C)C[C@H](NC(=O)[C@@H](NC(=O)[C@@H](NC(=O)CNC(=O)[C@H](CCC(N)=O)NC(=O)[C@@H]1CCCN1C(=O)[C@H](CC(C)C)NC(=O)[C@H](CCC(N)=O)NC(=O)[C@H](CC(C)C)NC(=O)[C@@H](N)C(C)C)[C@@H](C)O)[C@@H](C)O)C(=O)O [Epitope M18] (H-VLQLPQGTTL-OH; N-terminus and C-terminus assumed) | – | – | – | > 15 µM | 5 to 15 µM | – | – | > 15 µM | > 15 µM | – |
| CSCC[C@H](NC(=O)[C@H](CO)NC(=O)[C@H](Cc1ccccc1)NC(=O)[C@H](Cc1c[nH]cn1)NC(=O)[C@H](CCCCN)NC(=O)[C@H](CCCNC(=N)N)NC(=O)[C@H](CC(C)C)NC(=O)[C@H](Cc1ccc(O)cc1)NC(=O)[C@H](C)NC(=O)[C@@H](N)Cc1ccc(O)cc1)C(=O)O [Epitope M26] (H-YAYLRKHFSM-OH; N-terminus and C-terminus assumed) | 5 to 15 µM | – | > 15 µM | > 15 µM | – | 8.9% | 33.9% | – | 5 to 15 µM | > 15 µM |
| CC[C@H](C)[C@H](NC(=O)[C@H](CCCNC(=N)N)NC(=O)[C@H](CC(C)C)NC(=O)[C@H](CCSC)NC(=O)[C@H](CC(N)=O)NC(=O)[C@@H]1CCCN1C(=O)[C@H](CCSC)NC(=O)[C@H](C)NC(=O)[C@@H](N)CCCNC(=N)N)C(=O)O [Epitope M30] (H-RAMPNMLRI-OH; N-terminus and C-terminus assumed) | – | > 15 µM | > 15 µM | < 5 µM | 5 to 15 µM | – | – | > 15 µM | – | – |
| CC(C)C[C@H](NC(=O)[C@H](C)NC(=O)[C@H](C)NC(=O)CNC(=O)[C@H](C)NC(=O)CNC(=O)[C@H](Cc1ccccc1)NC(=O)[C@@H](NC(=O)[C@@H](N)Cc1c[nH]c2ccccc12)[C@@H](C)O)C(=O)O [Epitope M33, WTFGAGAAL] (H-WTFGAGAAL-OH; N-terminus and C-terminus assumed) | 5 to 15 µM | – | – | – | – | – | – | – | > 15 µM | – |
| CC[C@H](C)[C@H](NC(=O)[C@@H]1CCCN1C(=O)[C@@H](NC(=O)[C@H](Cc1c[nH]cn1)NC(=O)[C@H](CCCCN)NC(=O)[C@H](CO)NC(=O)[C@H](Cc1ccc(O)cc1)NC(=O)[C@@H](NC(=O)[C@@H](N)CCCCN)[C@@H](C)CC)[C@@H](C)O)C(=O)O [Epitope M34] (H-KIYSKHTPI-OH; N-terminus and C-terminus assumed) | > 15 µM | 5 to 15 µM | – | – | < 5 µM | 77.4% | 91.2% | – | > 15 µM | – |
| CC[C@H](C)[C@H](NC(=O)[C@@H](NC(=O)CNC(=O)[C@H](CC(N)=O)NC(=O)[C@H](CO)NC(=O)[C@H](CC(=O)O)NC(=O)[C@H](C)NC(=O)[C@@H](N)CCSC)[C@@H](C)O)C(=O)N[C@H](C(=O)N[C@H](C(=O)O)C(C)C)[C@@H](C)O [Epitope M48] (H-MADSNGTITV-OH; N-terminus and C-terminus assumed) | – | – | – | > 15 µM | > 15 µM | – | – | – | 5 to 15 µM | – |
| CC[C@H](C)[C@H](NC(=O)[C@H](CCC(N)=O)NC(=O)[C@H](CC(C)C)NC(=O)[C@H](C)NC(=O)[C@H](C)N)C(=O)N1CCC[C@H]1C(=O)N[C@@H](Cc1ccccc1)C(=O)N[C@@H](C)C(=O)N[C@@H](CCSC)C(=O)O [Epitope M66] (H-AALQIPFAM-OH; N-terminus and C-terminus assumed) | – | – | – | 5 to 15 µM | – | – | – | – | < 5 µM | – |
| CC(C)C[C@H](NC(=O)[C@@H](NC(=O)[C@H](CCCNC(=N)N)NC(=O)[C@H](CO)NC(=O)[C@@H](NC(=O)[C@H](C)NC(=O)[C@@H](N)C(C)C)[C@@H](C)O)[C@@H](C)O)C(=O)N[C@@H](CO)C(=O)N[C@@H](Cc1ccc(O)cc1)C(=O)O [Epitope M72] (H-VATSRTLSY-OH; N-terminus and C-terminus assumed) | > 15 µM | > 15 µM | > 15 µM | – | – | – | – | < 5 µM | > 15 µM | – |
| C[C@@H](O)[C@H](NC(=O)[C@H](CCC(N)=O)NC(=O)[C@H](CC(=O)O)NC(=O)[C@H](Cc1c[nH]c2ccccc12)NC(=O)[C@H](Cc1ccc(O)cc1)NC(=O)[C@H](CCCCN)NC(=O)[C@H](Cc1ccccc1)NC(=O)[C@@H](N)Cc1ccc(O)cc1)C(=O)N[C@@H](Cc1ccc(O)cc1)C(=O)O [Epitope M122] (H-YFKYWDQTY-OH; N-terminus and C-terminus assumed) | > 15 µM | – | 5 to 15 µM | > 15 µM | > 15 µM | – | – | – | > 15 µM | – |
